What follows are cell lines tested with CC1(C)CNc2cc(NC(=O)c3cccnc3NCc3ccncc3)ccc21 [Motesanib] + CS(=O)(=O)CCNCc1ccc(-c2ccc3ncnc(Nc4ccc(OCc5cccc(F)c5)c(Cl)c4)c3c2)o1 [Lapatinib] (partner 2 µM) (assay: relative viability (nuclei count vs DMSO), 5 days (fraction); higher = more cells survive). Conditions: first compound 1 µM.
In short: (§1)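 After 5 days of treatment, lung cancer cells in 1536-well plates were fixed and stained in a single step (final 0.05% Triton X-100, 1% formaldehyde, 1 ug/ml Hoechst) and their nuclei counted on 4× images. Treatment had been applied by pin tool the day after seeding as one drug alone or as a fixed anchor-drug dose with five library-drug doses (not always all listed) in √10 steps. Relative viability is the nuclei count of treated wells divided by that of vehicle wells, and values are medians of duplicate plates.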

Cell Line	relative viability
BEN	0.789
HARA	0.804
HCC-78	0.916
NCI-H322M	0.566
LCLC-97TM1	0.967
NCI-H2009	0.898
A-427	1.02
NCI-H661	0.49
NCI-H1734	0.99
NCI-H460	0.864
NCI-H2347	0.838
SK-LU-1	1.01
201T	0.903
NCI-H1915	1.01
HCC-827	0.192
LXF-289	0.949
NCI-H23	1.11

The cell lines below were run with C[C@@]1(C(=O)Nc2ccc(F)nc2)CCCN1c1nc(Nc2cc(C3CC3)n[nH]2)c2cccn2n1 + COc1cccc2cc(-c3nc([C@H]4CC[C@H](C(=O)O)CC4)n4ncnc(N)c34)[nH]c12 [OSI-027] (partner 0.5 µM) in the same assay as above. Conditions: first compound 0.04 µM.
In short: as §1

Cell Line	relative viability
NCI-H2126	0.469
EMC-BAC-2	0.299
NCI-H2085	0.788
HCC-366	0.861
NCI-H1666	0.611
NCI-H596	0.63
NCI-H2087	0.366
SK-MES-1	0.615
H3255	0.523
COR-L23	0.656
COR-L 105	0.627
LOU-NH91	0.65
NCI-H2405	0.401
HOP-62	0.758
HCC-44	0.447
LU99A	0.251
BEN	0.263

Cell Line	relative viability
HARA	0.439
HCC-78	0.377
NCI-H322M	0.483
LCLC-97TM1	0.284
NCI-H2009	0.634
A-427	0.442
NCI-H661	0.592
NCI-H1734	0.42
NCI-H460	0.538
NCI-H2347	0.33
SK-LU-1	0.252
201T	0.519
NCI-H1915	0.612
HCC-827	0.393
LXF-289	0.633
NCI-H23	0.397

Same assay, conditions: first compound 0.1265 µM

Cell Line	relative viability
NCI-H2126	0.311
EMC-BAC-2	0.274
NCI-H2085	0.679
HCC-366	0.585
NCI-H1666	0.488
NCI-H596	0.557
LK-2	0.163
NCI-H2087	0.254
SK-MES-1	0.317
H3255	0.555
COR-L23	0.53
COR-L 105	0.377
LOU-NH91	0.665
NCI-H2405	0.294
HOP-62	0.574
HCC-44	0.213
LU99A	0.233

Cell Line	relative viability
BEN	0.18
HARA	0.208
HCC-78	0.308
NCI-H322M	0.364
LCLC-97TM1	0.111
NCI-H2009	0.371
A-427	0.275
NCI-H661	0.564
NCI-H1734	0.29
NCI-H460	0.252
NCI-H2347	0.287
SK-LU-1	0.176
201T	0.356
NCI-H1915	0.628
HCC-827	0.782
LXF-289	0.463
NCI-H23	0.232

Same assay, conditions: first compound 0.4 µM

Cell Line	relative viability
NCI-H2126	0.256
EMC-BAC-2	0.241
NCI-H2085	0.599
HCC-366	0.462
NCI-H1666	0.568
NCI-H596	0.555
LK-2	0.153
NCI-H2087	0.267
SK-MES-1	0.357
H3255	0.397
COR-L23	0.518
COR-L 105	0.31
LOU-NH91	0.59
NCI-H2405	0.269
HOP-62	0.641
HCC-44	0.298
LU99A	0.223

Cell Line	relative viability
BEN	0.236
HARA	0.171
HCC-78	0.298
NCI-H322M	0.363
LCLC-97TM1	0.122
NCI-H2009	0.403
A-427	0.366
NCI-H661	0.249
NCI-H1734	0.268
NCI-H460	0.29
NCI-H2347	0.244
SK-LU-1	0.198
201T	0.35
NCI-H1915	0.592
HCC-827	0.707
LXF-289	0.407
NCI-H23	0.225

Same assay, conditions: first compound 1.265 µM

Cell Line	relative viability
NCI-H2126	0.344
EMC-BAC-2	0.251
NCI-H2085	0.535
HCC-366	0.437
NCI-H1666	0.426
NCI-H596	0.793
LK-2	0.178
NCI-H2087	0.338
SK-MES-1	0.286
H3255	0.447
COR-L23	0.461
COR-L 105	0.408
LOU-NH91	0.563
NCI-H2405	0.272
HOP-62	0.657
HCC-44	0.191
LU99A	0.186

Cell Line	relative viability
BEN	0.271
HARA	0.25
HCC-78	0.323
NCI-H322M	0.321
LCLC-97TM1	0.112
NCI-H2009	0.42
A-427	0.261
NCI-H661	0.529
NCI-H1734	0.293
NCI-H460	0.313
NCI-H2347	0.342
SK-LU-1	0.219
201T	0.306
NCI-H1915	0.604
HCC-827	0.724
LXF-289	0.353
NCI-H23	0.266

The cell lines below were run with CC1(C)CNc2cc(NC(=O)c3cccnc3NCc3ccncc3)ccc21 [Motesanib] + C[C@]1(O)C[C@@H](c2nc(-c3ccc4ccc(-c5ccccc5)nc4c3)c3c(N)nccn32)C1 [Linsitinib] (partner 1 µM) in the same assay as above. Conditions: first compound 0.01 µM.
In short: as §1

Cell Line	relative viability
NCI-H2126	0.736
EMC-BAC-2	0.828
NCI-H2085	0.936
HCC-366	0.639
NCI-H1666	0.966
NCI-H596	1.1
LK-2	0.426
NCI-H2087	0.885
SK-MES-1	1.06
H3255	0.949
COR-L23	0.943
COR-L 105	0.872
LOU-NH91	1.05
HOP-62	0.732
HCC-44	0.7
LU99A	0.496
BEN	0.932

Cell Line	relative viability
HARA	0.967
HCC-78	0.498
NCI-H322M	1.03
LCLC-97TM1	0.171
NCI-H2009	1.14
A-427	1.06
NCI-H661	0.518
NCI-H1734	0.843
NCI-H460	0.836
NCI-H2347	0.985
SK-LU-1	1.14
201T	1
NCI-H1915	1.09
HCC-827	0.983
LXF-289	0.958
NCI-H23	0.582

Same assay, conditions: first compound 0.03162 µM

Cell Line	relative viability
NCI-H2126	0.73
EMC-BAC-2	0.805
NCI-H2085	0.853
HCC-366	0.589
NCI-H1666	0.83
NCI-H596	0.937
LK-2	0.44
NCI-H2087	1.03
SK-MES-1	1.09
H3255	1.02
COR-L23	0.862
COR-L 105	1.22
LOU-NH91	0.996
NCI-H2405	1
HOP-62	0.956
HCC-44	0.653
LU99A	0.565

Cell Line	relative viability
BEN	0.842
HARA	0.909
HCC-78	0.481
NCI-H322M	0.91
LCLC-97TM1	0.164
NCI-H2009	1.27
A-427	1.11
NCI-H661	0.528
NCI-H1734	0.951
NCI-H460	0.817
NCI-H2347	1.01
SK-LU-1	1.01
201T	1.09
NCI-H1915	1.19
HCC-827	0.916
LXF-289	0.974
NCI-H23	0.609

Same assay, conditions: first compound 0.1 µM

Cell Line	relative viability
NCI-H2126	0.719
EMC-BAC-2	0.827
NCI-H2085	1.13
HCC-366	0.656
NCI-H1666	0.786
NCI-H596	1.08
LK-2	0.369
NCI-H2087	1.16
SK-MES-1	1.1
H3255	0.913
COR-L23	0.92
COR-L 105	1.04
LOU-NH91	0.942
NCI-H2405	0.866
HOP-62	0.806
HCC-44	0.694
LU99A	0.537

Cell Line	relative viability
BEN	1.08
HARA	1.02
HCC-78	0.541
NCI-H322M	0.913
LCLC-97TM1	0.2
NCI-H2009	1.17
A-427	1.07
NCI-H661	0.559
NCI-H1734	0.897
NCI-H460	0.726
NCI-H2347	1.06
SK-LU-1	1.2
201T	1.03
NCI-H1915	1.11
HCC-827	1
LXF-289	1.02

Same assay, conditions: first compound 0.3162 µM

Cell Line	relative viability
NCI-H2126	0.74
EMC-BAC-2	0.817
NCI-H2085	0.996
HCC-366	0.666
NCI-H1666	0.788
NCI-H596	1.12
LK-2	0.623
NCI-H2087	0.998
SK-MES-1	1.08
H3255	1.06
COR-L23	1.09
COR-L 105	0.889
LOU-NH91	0.91
NCI-H2405	0.967
HOP-62	1.05
HCC-44	0.696
LU99A	0.511

Cell Line	relative viability
BEN	0.886
HARA	1.09
HCC-78	0.705
NCI-H322M	0.92
LCLC-97TM1	0.182
NCI-H2009	1.22
A-427	1.22
NCI-H661	0.593
NCI-H1734	0.976
NCI-H460	0.899
NCI-H2347	1
SK-LU-1	1.1
201T	1.05
NCI-H1915	1.16
HCC-827	1.05
LXF-289	1
NCI-H23	0.56

Same assay, conditions: first compound 1 µM

Cell Line	relative viability
NCI-H2126	0.701
EMC-BAC-2	0.86
NCI-H2085	0.886
HCC-366	0.79
NCI-H1666	0.753
NCI-H596	1.08
LK-2	0.582
NCI-H2087	1.1
SK-MES-1	1.08
H3255	0.871
COR-L23	0.905
COR-L 105	1.17
LOU-NH91	0.996
NCI-H2405	0.993
HOP-62	1.03
HCC-44	0.6
LU99A	0.594

Cell Line	relative viability
BEN	1.05
HARA	1.14
HCC-78	0.584
NCI-H322M	0.98
LCLC-97TM1	0.2
NCI-H2009	1.18
A-427	1.22
NCI-H661	0.495
NCI-H1734	1.01
NCI-H460	0.744
NCI-H2347	1
SK-LU-1	1.32
201T	1.02
NCI-H1915	1.08
HCC-827	0.951
LXF-289	1.02
NCI-H23	0.527

— the supplement of paper PMC10307832
